Some test systems named below: HOP-62 NSCLC; HT29 colon; MCF7 breast; NCI-H23 lung; NCI-H460 lung; NCI/ADR-RES ovarian; PC-3 prostate; RPMI-8226 leukemia; RXF 393 renal; SK-MEL-2 melanoma.
Holding throughout (assay): DTP human tumour cell line panel, 48 h

Results on nine molecules are retold here after PubChem BioAssay (NCI).

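Test compounds were applied to cells in 96-well plates for 48 hours at 5 doses. The concentration for 50% growth inhibition is given as GI50. The concentration for full growth arrest is given as TGI.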

`COc1cc2ncc3c(nc4sccn43)c2cc1OC`: the GI50 was 18.7 µM in the assay on HOP-62 NSCLC; 69.7 µM in the assay with HT29 colon; 36.8 µM with MCF7 breast; 80.4 µM with NCI-H23 lung; 13.6 µM with NCI-H460 lung; 93.3 µM with NCI/ADR-RES ovarian. In addition, the GI50 with PC-3 prostate is 47.9 µM; with RPMI-8226 leukemia it was 26.4 µM; in the assay on RXF 393 renal it was above 100 µM; with SK-MEL-2 melanoma, 31.1 µM. Also, the TGI was 51.4 µM in the assay with HOP-62 NSCLC; above 100 µM in the assay with HT29 colon; above 100 µM in the assay on MCF7 breast; above 100 µM in the assay on NCI-H23 lung; above 100 µM with NCI-H460 lung; above 100 µM with NCI/ADR-RES ovarian. The concentration for total growth inhibition (TGI) with PC-3 prostate is above 100 µM; with RPMI-8226 leukemia it was 89 µM; in the assay with RXF 393 renal, above 100 µM; in the assay on SK-MEL-2 melanoma it was above 100 µM.
Consider `Fc1cccc(F)c1C(Nc1nncs1)Nc1nncs1`, for which the TGI in the assay on HOP-62 NSCLC, in the assay with HT29 colon, in the assay on MCF7 breast, in the assay with NCI-H23 lung, in the assay with NCI-H460 lung and with NCI/ADR-RES ovarian was above 100 µM each time. For the same molecule, the total growth inhibition concentration (TGI) in the assay with PC-3 prostate, in the assay on RPMI-8226 leukemia, in the assay with RXF 393 renal and with SK-MEL-2 melanoma was above 100 µM throughout.
Regarding `N/C(=N\OC(=O)c1ccccc1)C(Cc1ccccc1)C(=O)NOC(=O)c1ccccc1` (stereo not given), the GI50 in the assay on HOP-62 NSCLC is 1.37 µM; in the assay with HT29 colon, 5.24 µM; in the assay with MCF7 breast it was 2.78 µM; in the assay on NCI-H23 lung, 3.54 µM; in the assay with NCI-H460 lung it was 1.76 µM; with NCI/ADR-RES ovarian, 2.72 µM. Also, the GI50 was 2.62 µM in the assay with PC-3 prostate, 1.74 µM in the assay on RPMI-8226 leukemia, 1.97 µM with RXF 393 renal and 2.16 µM with SK-MEL-2 melanoma. The TGI with HOP-62 NSCLC is 2.83 µM; in the assay with HT29 colon it was 18.5 µM; with MCF7 breast, 10.3 µM; in the assay with NCI-H23 lung, 17.4 µM; with NCI-H460 lung, 3.71 µM; in the assay with NCI/ADR-RES ovarian, 11.3 µM. In addition, the TGI came to 7.2 µM in the assay with PC-3 prostate, 4.95 µM in the assay with RPMI-8226 leukemia, 5.6 µM in the assay on RXF 393 renal and 4.17 µM in the assay on SK-MEL-2 melanoma.
As to `COc1cc(/C=C/c2ccc3c(Br)cc(Br)c(O)c3n2)ccc1O`, the GI50 with HOP-62 NSCLC is 1.51 µM; in the assay on HT29 colon, 3.86 µM; in the assay with MCF7 breast, 1.53 µM; in the assay on NCI-H23 lung, 1.99 µM; with NCI-H460 lung, 0.446 µM; with NCI/ADR-RES ovarian, 0.327 µM. Further, the GI50 is 1.26 µM in the assay with PC-3 prostate, 1.21 µM in the assay on RPMI-8226 leukemia, 3.8 µM in the assay with RXF 393 renal and 6.11 µM in the assay on SK-MEL-2 melanoma. For the same molecule, the TGI worked out at 8.07 µM with HOP-62 NSCLC; 12.8 µM in the assay on HT29 colon; 12.5 µM in the assay on MCF7 breast; 16.4 µM with NCI-H23 lung; 11.5 µM with NCI-H460 lung; 1.49 µM with NCI/ADR-RES ovarian. Moreover, the TGI with PC-3 prostate stood at 15.1 µM; with RPMI-8226 leukemia it was 8.07 µM; in the assay with RXF 393 renal, 18.3 µM; in the assay with SK-MEL-2 melanoma it was 22.2 µM.
Consider `O=C(NNS(=O)(=O)c1ccc(Cl)cc1Cl)c1cccnc1Nc1ccc(Cl)cc1`, for which the GI50 is 16.6 µM with HOP-62 NSCLC; 22.8 µM in the assay with HT29 colon; 35.2 µM in the assay with MCF7 breast; 17.3 µM with NCI-H23 lung; 35.7 µM in the assay on NCI-H460 lung; 23.4 µM in the assay with NCI/ADR-RES ovarian. For the same molecule, the GI50 was 23.4 µM in the assay with PC-3 prostate, 17.7 µM with RPMI-8226 leukemia, 16.9 µM in the assay on RXF 393 renal and 18.6 µM in the assay with SK-MEL-2 melanoma. For the same molecule, the TGI in the assay on HOP-62 NSCLC was 37.7 µM; in the assay on HT29 colon it was 54.2 µM; in the assay with MCF7 breast, above 100 µM; in the assay on NCI-H23 lung, 42.6 µM; with NCI-H460 lung it was above 100 µM; in the assay with NCI/ADR-RES ovarian, 76.5 µM. Moreover, the concentration for total growth inhibition (TGI) in the assay with PC-3 prostate was 80.4 µM; with RPMI-8226 leukemia, 53.2 µM; in the assay on RXF 393 renal, 43.8 µM; with SK-MEL-2 melanoma, 42.5 µM.
Regarding `Clc1ccc(C2ON=C(c3ccccc3)N2C23CC4CC(CC(C4)C2)C3)cc1` (stereo not given), the TGI in the assay on HOP-62 NSCLC, in the assay on HT29 colon, in the assay on MCF7 breast, in the assay with NCI-H23 lung, in the assay with NCI-H460 lung and in the assay with NCI/ADR-RES ovarian was above 10 µM in each case. The TGI in the assay on PC-3 prostate, in the assay on RPMI-8226 leukemia, in the assay with RXF 393 renal and with SK-MEL-2 melanoma was above 10 µM in each case.
Take `Cc1[nH]nc(-c2ccon2)c1N=O`: the TGI with HOP-62 NSCLC was 41.9 µM; in the assay on HT29 colon it was 39.6 µM; with MCF7 breast, 63.2 µM; in the assay on NCI-H23 lung it was 45.8 µM; in the assay on NCI-H460 lung it was above 100 µM; in the assay with NCI/ADR-RES ovarian it was 38 µM. Besides, the TGI with PC-3 prostate was 70.3 µM; with RPMI-8226 leukemia, 17.1 µM; in the assay with RXF 393 renal, 97.7 µM; in the assay with SK-MEL-2 melanoma it was above 100 µM.
Regarding `CN1CCc2nc3sc(C(N)=O)c(N)c3c(-c3cccs3)c2C1`, the GI50 in the assay with HOP-62 NSCLC is 3.27 µM; in the assay with HT29 colon it was 3.11 µM; in the assay on MCF7 breast, 4.1 µM; in the assay with NCI-H23 lung it was 2.87 µM; with NCI-H460 lung, 3.71 µM; in the assay on NCI/ADR-RES ovarian it was 3.69 µM. For the same molecule, the GI50 is 4.58 µM in the assay on PC-3 prostate, 4.41 µM in the assay on RPMI-8226 leukemia, 1.11 µM with RXF 393 renal and 2.67 µM in the assay with SK-MEL-2 melanoma. The concentration for total growth inhibition (TGI) with HOP-62 NSCLC was above 100 µM; in the assay with HT29 colon it was 70.9 µM; in the assay on MCF7 breast, above 100 µM; with NCI-H23 lung, 12.6 µM; in the assay on NCI-H460 lung, above 100 µM; in the assay with NCI/ADR-RES ovarian, 98.8 µM. Further, the TGI in the assay on PC-3 prostate is above 100 µM; in the assay on RPMI-8226 leukemia, above 100 µM; in the assay on RXF 393 renal, 3.63 µM; in the assay on SK-MEL-2 melanoma it was 6.22 µM.
Consider `CC1C=CC(OC(=O)C(C)(O)CCC(O)(C(=O)OC2CC(O)C(C(C)C)CC2(C)O)C(C)C)(C(C)C)CC1` (stereo not given), for which the GI50 with HOP-62 NSCLC is 0.641 µM; in the assay with HT29 colon it was 0.599 µM; with MCF7 breast, 0.182 µM; in the assay on NCI-H23 lung, 0.591 µM; in the assay on NCI-H460 lung it was 0.799 µM; in the assay with NCI/ADR-RES ovarian, 0.725 µM. The GI50 with PC-3 prostate was 0.676 µM; with RPMI-8226 leukemia, 0.161 µM; with RXF 393 renal, 0.57 µM; in the assay with SK-MEL-2 melanoma, 0.769 µM. Further, the total growth inhibition concentration (TGI) with HOP-62 NSCLC is 1.66 µM; in the assay with HT29 colon it was 1.56 µM; in the assay on MCF7 breast, 0.904 µM; in the assay with NCI-H23 lung, 1.33 µM; in the assay with NCI-H460 lung it was 1.59 µM; in the assay with NCI/ADR-RES ovarian it was 2.22 µM. In addition, the TGI amounted to 1.4 µM in the assay on PC-3 prostate, 0.711 µM in the assay with RPMI-8226 leukemia, 1.35 µM in the assay on RXF 393 renal and 1.64 µM in the assay with SK-MEL-2 melanoma.

The GI50 is the concentration that inhibits growth by half. For orientation: TGI means the concentration giving total growth inhibition. A low value points to more potent growth arrest.
